Experimental data taken from patent US6525001B1, “Substituted pyrimidine and pyridine herbicides” (Mid-American Commercialization Corporation, priority 1997, dated 2003).

What was measured:
Format in all cases: in vivo
rice (Oryza sativa) = experiment: Test B flood test
Method: (§1) At the same time, these crop and weed species were also treated with postemergence applications of test chemicals formulated in the same manner. Plants ranged in height from 2 to 18 cm (1- to 4-leaf stage) for postemergence treatments. Plant species in the flood test consisted of rice (Oryza sativa), smallflower flatsedge (Cyperus difformis), duck salad (Heteranthera limosa) and bamyardgrass (Echinochloa crus-galli) grown to the 2-leaf stage for testing. Treated plants and controls were maintained in a greenhouse for twelve to sixteen days, after which all species were compared to controls and visually evaluated. Plant response ratings, summarized in Table B, are based on a scale of 0 to 10 where 0 is no effect and 10 is complete control. A dash (−) response means no test result.

[1] = tested on: bamyardgrass (Echinochloa crus-galli); experiment: Test B flood test
Method: as §1

[2] = tested on: duck salad (Heteranthera limosa); experiment: Test B flood test
Method: as §1

[3] = tested on: smallflower flatsedge (Cyperus difformis); experiment: Test B flood test
Method: as §1

[4] = tested on: pigweed (Amaranthus retroflexus); experiment: Test B pre-/postemergence; design: key: 0 is no effect; 10 is complete control
Excerpt: (§2) Seeds of bedstraw (Galium aparine), blackgrass (Alopecurus myosuroides), broadleaf signalgrass (Brachiaria decumbens), cocklebur (Xanthium strumarium), corn (Zea mays), crabgrass (Digitaria sanguinalis), giant foxtail (Setaria faberii), lambsquarters (Chenopodium album), momingglory (Ipomoea hederacea), pigweed (Amaranthus retroflexus), rape (Brassica napus), soybean (Glycine max), sugar beet (Beta vulgaris), velvetleaf (Abutilon theophrasti), wheat (Triticum aestivum), wild oat (Avena fatua) and purple nutsedge (Cyperus rotundus) tubers were planted and treated preemergence with test chemicals formulated in a non-phytotoxic solvent mixture which included a surfactant.
as §1

[5] = tested on: sugar beet (Beta vulgaris); experiment: Test B pre-/postemergence; design: key: 0 is no effect; 10 is complete control
Excerpt: as §2, §1

[6] = tested on: giant foxtail (Setaria faberii); experiment: Test B pre-/postemergence; design: key: 0 is no effect; 10 is complete control
Excerpt: as §2, §1

[7] = tested on: broadleaf signalgrass (Brachiaria decumbens); experiment: Test B pre-/postemergence; design: key: 0 is no effect; 10 is complete control; conditions: for B. signalgrass plant response rating: Preemergence
Excerpt: as §2, §1

[8] = tested on: crabgrass (Digitaria sanguinalis); experiment: Test B pre-/postemergence; design: key: 0 is no effect; 10 is complete control; conditions: for Crabgrass plant response rating: Preemergence
Excerpt: as §2, §1

[9] = tested on: velvetleaf (Abutilon theophrasti); experiment: Test B pre-/postemergence; design: key: 0 is no effect; 10 is complete control
Excerpt: as §2, §1

corn (Zea mays) = experiment: Test B pre-/postemergence; design: key: 0 is no effect; 10 is complete control; conditions: for Corn plant response rating: Preemergence
Excerpt: as §2, §1

rape (Brassica napus) = experiment: Test B pre-/postemergence; design: key: 0 is no effect; 10 is complete control
Excerpt: as §2, §1

[10] = tested on: wheat (Triticum aestivum); experiment: Test B pre-/postemergence; design: key: 0 is no effect; 10 is complete control
Excerpt: as §2, §1

[11] = tested on: momingglory (Ipomoea hederacea); experiment: Test B pre-/postemergence; design: key: 0 is no effect; 10 is complete control
Excerpt: as §2, §1

soybean (Glycine max) = experiment: Test B pre-/postemergence; design: key: 0 is no effect; 10 is complete control
Excerpt: as §2, §1

[12] = tested on: blackgrass (Alopecurus myosuroides); experiment: Test B pre-/postemergence; design: key: 0 is no effect; 10 is complete control; conditions: for Blackgrass plant response rating: Preemergence
Excerpt: as §2, §1

[13] = tested on: cocklebur (Xanthium strumarium); experiment: Test B pre-/postemergence; design: key: 0 is no effect; 10 is complete control; conditions: for Cocklebur plant response rating: Preemergence
Excerpt: as §2, §1

[14] = tested on: bedstraw (Galium aparine); experiment: Test B pre-/postemergence; design: key: 0 is no effect; 10 is complete control; conditions: for Bedstraw plant response rating: Preemergence
Excerpt: as §2, §1

wild oat (Avena fatua) = experiment: Test B pre-/postemergence; design: key: 0 is no effect; 10 is complete control
Excerpt: as §2, §1

[15] = Rate 62 g/ha, Postemergence (flood test)
[16] = Rate 125 g/ha, Postemergence section (flood test species)
[17] = Rate 250 g/ha, Postemergence (flood test species)
[18] = Rate 125 g/ha, Postemergence, flood test
[19] = Rate 250 g/ha, Postemergence (so in the source)

CCc1cnc(-n2ccc(C(F)(F)F)n2)nc1Cc1cccc(OC(F)(F)F)c1 [Compound 47]
Plant response rating, Rice (rice (Oryza sativa); [15]): 3 | Rice plant response rating (rice (Oryza sativa); [16]): 5 | Plant response rating, Rice (rice (Oryza sativa); [17]): 6 | Plant response rating, Barnyardgrass [1, 15]: 2 | Plant response rating, Barnyardgrass [1, 18]: 3 | Plant response rating, Barnyardgrass [1, 17]: 6 | Plant response rating, Ducksalad [2, 15]: 3 | Plant response rating, Ducksalad [2, 18]: 3 | Plant response rating, Ducksalad [2, 17]: 7 | Plant response rating, S. Flatsedge [3, 15]: 7 | S. Flatsedge plant response rating [3, 16]: 7 | Plant response rating, S. Flatsedge [3, 17]: 9 | Plant response rating, Redroot pigweed ([4]; Rate 62 g/ha, Postemergence): 9 | Redroot pigweed plant response rating ([4]; Rate 62 g/ha, Preemergence): 8 | Redroot pigweed plant response rating ([4]; Rate 125 g/ha, Postemergence): 9 | Redroot pigweed plant response rating ([4]; Rate 125 g/ha, Preemergence): 9 | Plant response rating, Redroot pigweed ([4]; Rate 250 g/ha, Postemergence): 9 | Plant response rating, Redroot pigweed [4, 19]: 10 | Plant response rating, Sugarbeets ([5]; Rate 62 g/ha, Postemergence): 9 | Sugarbeets plant response rating ([5]; Rate 62 g/ha, Preemergence): 7 | Sugarbeets plant response rating ([5]; Rate 125 g/ha, Postemergence): 9 | Plant response rating, Sugarbeets ([5]; Rate 125 g/ha, Preemergence): 7 | Plant response rating, Sugarbeets ([5]; Rate 250 g/ha, Postemergence): 9 | Plant response rating, Sugarbeets [5, 19]: 9 | Plant response rating, Giant foxtail ([6]; Rate 62 g/ha, Postemergence): 4 | Giant foxtail plant response rating ([6]; Rate 62 g/ha, Preemergence): 9 | Giant foxtail plant response rating ([6]; Rate 125 g/ha, Postemergence): 4 | Giant foxtail plant response rating ([6]; Rate 125 g/ha, Preemergence): 10 | Plant response rating, Giant foxtail ([6]; Rate 250 g/ha, Postemergence): 7 | Plant response rating, Giant foxtail [6, 19]: 10 | Plant response rating, B. signalgrass ([7]; Rate 62 g/ha, Postemergence): 4 | B. signalgrass plant response rating ([7]; Rate 62 g/ha): 5 | Plant response rating, B. signalgrass ([7]; Rate 125 g/ha, Postemergence): 5 | B. signalgrass plant response rating ([7]; Rate 125 g/ha): 6 | Plant response rating, B. signalgrass ([7]; Rate 250 g/ha, Postemergence): 8 | Plant response rating, B. signalgrass ([7]; Rate 250 g/ha, Postemergence as printed in head r139 (second section for compounds 26-50)): 9 | Plant response rating, Crabgrass ([8]; Rate 62 g/ha, Postemergence): 7 | Crabgrass plant response rating ([8]; Rate 62 g/ha): 8 | Plant response rating, Crabgrass ([8]; Rate 125 g/ha, Postemergence): 9 | Crabgrass plant response rating ([8]; Rate 125 g/ha): 10 | Plant response rating, Crabgrass ([8]; Rate 250 g/ha, Postemergence): 10 | Plant response rating, Crabgrass [8, 19]: 10 | Plant response rating, Velvetleaf ([9]; Rate 62 g/ha, Postemergence): 7 | Velvetleaf plant response rating ([9]; Rate 62 g/ha, Preemergence): 8 | Velvetleaf plant response rating ([9]; Rate 125 g/ha, Postemergence): 7 | Plant response rating, Velvetleaf ([9]; Rate 125 g/ha, Preemergence): 10 | Plant response rating, Velvetleaf ([9]; Rate 250 g/ha, Postemergence): 8 | Plant response rating, Velvetleaf [9, 19]: 10 | Plant response rating, Corn (corn (Zea mays); Rate 62 g/ha, Postemergence): 3 | Corn plant response rating (corn (Zea mays); Rate 62 g/ha): 1 | Plant response rating, Corn (corn (Zea mays); Rate 125 g/ha, Postemergence): 3 | Corn plant response rating (corn (Zea mays); Rate 125 g/ha): 2 | Plant response rating, Corn (corn (Zea mays); Rate 250 g/ha, Postemergence): 4 | Plant response rating, Corn (corn (Zea mays); [19]): 3 | Plant response rating, Rape (rape (Brassica napus); Rate 62 g/ha, Postemergence): 10 | Rape plant response rating (rape (Brassica napus); Rate 62 g/ha, Preemergence): 7 | Rape plant response rating (rape (Brassica napus); Rate 125 g/ha, Postemergence): 10 | Rape plant response rating (rape (Brassica napus); Rate 125 g/ha, Preemergence): 9 | Plant response rating, Rape (rape (Brassica napus); Rate 250 g/ha, Postemergence): 10 | Plant response rating, Rape (rape (Brassica napus); [19]): 10 | Wheat plant response rating ([10]; Rate 62 g/ha, Postemergence): 5 | Wheat plant response rating ([10]; Rate 62 g/ha, Preemergence): 2 | Wheat plant response rating ([10]; Rate 125 g/ha, Postemergence): 5 | Plant response rating, Wheat ([10]; Rate 125 g/ha, Preemergence): 3 | Plant response rating, Wheat ([10]; Rate 250 g/ha, Postemergence): 6 | Plant response rating, Wheat [10, 19]: 5 | Plant response rating, Morningglory ([11]; Rate 62 g/ha, Postemergence): 6 | Morningglory plant response rating ([11]; Rate 62 g/ha, Preemergence): 1 | Morningglory plant response rating ([11]; Rate 125 g/ha, Postemergence): 6 | Morningglory plant response rating ([11]; Rate 125 g/ha, Preemergence): 6 | Plant response rating, Morningglory ([11]; Rate 250 g/ha, Postemergence): 8 | Plant response rating, Morningglory [11, 19]: 6 | Plant response rating, Soybean (soybean (Glycine max); Rate 62 g/ha, Postemergence): 8 | Soybean plant response rating (soybean (Glycine max); Rate 62 g/ha, Preemergence): 0 | Soybean plant response rating (soybean (Glycine max); Rate 125 g/ha, Postemergence): 8 | Plant response rating, Soybean (soybean (Glycine max); Rate 125 g/ha, Preemergence): 0 | Plant response rating, Soybean (soybean (Glycine max); Rate 250 g/ha, Postemergence): 7 | Plant response rating, Soybean (soybean (Glycine max); [19]): 2 | Plant response rating, Blackgrass ([12]; Rate 62 g/ha, Postemergence): 5 | Blackgrass plant response rating ([12]; Rate 62 g/ha): 3 | Plant response rating, Blackgrass ([12]; Rate 125 g/ha, Postemergence): 5 | Blackgrass plant response rating ([12]; Rate 125 g/ha): 8 | Plant response rating, Blackgrass ([12]; Rate 250 g/ha, Postemergence): 6 | Plant response rating, Blackgrass [12, 19]: 10 | Plant response rating, Cocklebur ([13]; Rate 62 g/ha, Postemergence): 7 | Cocklebur plant response rating ([13]; Rate 62 g/ha): 1 | Plant response rating, Cocklebur ([13]; Rate 125 g/ha, Postemergence): 8 | Cocklebur plant response rating ([13]; Rate 125 g/ha): 2 | Plant response rating, Cocklebur ([13]; Rate 250 g/ha, Postemergence): 8 | Plant response rating, Cocklebur [13, 19]: 2 | Plant response rating, Bedstraw ([14]; Rate 62 g/ha, Postemergence): 9 | Bedstraw plant response rating ([14]; Rate 62 g/ha): 7 | Bedstraw plant response rating ([14]; Rate 125 g/ha): 8 | Plant response rating, Bedstraw [14, 19]: 8 | Wild oats plant response rating (wild oat (Avena fatua); Rate 62 g/ha, Postemergence): 6 | Wild oats plant response rating (wild oat (Avena fatua); Rate 62 g/ha, Preemergence): 9 | Wild oats plant response rating (wild oat (Avena fatua); Rate 125 g/ha, Postemergence): 8 | Plant response rating, Wild oats (wild oat (Avena fatua); Rate 125 g/ha, Preemergence): 9 | Plant response rating, Wild oats (wild oat (Avena fatua); Rate 250 g/ha, Postemergence): 9 | Plant response rating, Wild oats (wild oat (Avena fatua); [19]): 10
